{"source": "patent US20230045421A1", "about": "(priority 2018, published 2023)", "test_system": "HBV rcDNA", "test": "HepDE19 assay with bDNA quantitation of HBV rcDNA", "format": "cell-based, hepatitis B virus", "summary_of_the_method": "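HepDE19 cells (HepG2-derived, Tet-regulated HBV replication) were deprived of tetracycline and then exposed to compounds for 7 days at 37 °C in 0.5% DMSO, 8-point titration from 25 μM. rcDNA was quantified by bDNA and EC50/EC90 came from 4-parameter fits. CC50 was measured by CellTiter-Glo ATP content on replicate plates after 4 days.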", "key": {"[1]": {"details": "read-out: DE-19bDNA EC50, HepDE19 assay, inhibition of formation of rcDNA"}, "[2]": {"details": "HepDE19 assay, inhibition of formation of rcDNA, read-out: DE-19bDNA EC50"}, "[3]": {"details": "Hepatitis B virus, HepDE19, HepDE19 assay, inhibition of formation of relaxed circular DNA (rcDNA), bDNA quantitation, read-out: DE-19bDNA EC50"}, "[4]": {"details": "Hepatitis B virus, HepDE19, HepDE19 assay, inhibition of formation of rcDNA, read-out: DE-19bDNA EC50"}, "[5]": {"details": "HepDE19 assay, inhibition of formation of relaxed circular DNA (rcDNA), bDNA quantitation, read-out: DE-19bDNA EC50"}}, "note": "Where two headings read alike, the source gives them in different places."}
{"smiles": "CCN(C(=O)Nc1ccc(F)c(Cl)c1)C(c1c[nH]c(=O)c2ccccc12)C1CC1", "note": "(single isomer, unassigned) [Compound 49, 3-(3-Chloro-4-fluorophenyl)-1-(cyclopropyl(1-oxo-1,2-dihydroisoquinolin-4-yl)methyl)-1-ethylurea]", "values": [{"measurement": "EC50", "setting": "[1]", "result": 0.5, "unit": "µM"}]}
{"smiles": "CC(c1c[nH]c(=O)c2ccccc12)N(C[C@H]1CCCO1)C(=O)Nc1ccc(F)c(Cl)c1", "note": "(single isomer, unassigned) [Compound 155]", "values": [{"measurement": "EC50", "setting": "[2]", "result": 7.7, "unit": "µM"}]}
{"smiles": "CC(c1c[nH]c(=O)c2ccccc12)N(C)C(=O)NC1CCCC1", "note": "(single isomer, unassigned) [Compound 299, 3-Cyclopentyl-1-methyl-1-(1-(1-oxo-1,2-dihydroisoquinolin-4-yl)ethyl)urea]", "values": [{"measurement": "EC50", "setting": "[3]", "result": 8.6, "unit": "µM"}]}
{"smiles": "CC(c1c[nH]c(=O)c2cnccc12)N(CCCO)C(=O)Nc1ccc(F)c(Cl)c1", "note": "(centres unmarked) [Compound 159, 3-(3-Chloro-4-fluorophenyl)-1-(3-hydroxypropyl)-1-(1-(1-oxo-1,2-dihydro-2,7-naphthyridin-4-yl)ethyl)urea]", "values": [{"measurement": "EC50", "setting": "[4]", "result": 0.1, "unit": "µM"}]}
{"smiles": "CC(c1c[nH]c(=O)c2ccc(Cl)cc12)N(C)C(=O)Nc1ccc(F)c(Cl)c1", "note": "(single isomer, unassigned) [Compound 171, 1-(1-(6-Chloro-1-oxo-1,2-dihydroisoquinolin-4-yl)ethyl)-3-(3-chloro-4-fluorophenyl)-1-methylurea]", "values": [{"measurement": "EC50", "setting": "[2]", "result": 5.4, "unit": "µM"}]}
{"smiles": "CC(c1c[nH]c(=O)c2c(F)c(F)ccc12)N(C)C(=O)NCc1ccc(F)c(F)c1", "note": "(single isomer, unassigned) [Compound 489, 1-(1-(7,8-Difluoro-1-oxo-1,2-dihydroisoquinolin-4-yl)ethyl)-3-(3,4-difluorobenzyl)-1-methylurea]", "values": [{"measurement": "EC50", "setting": "[5]", "result": 19, "unit": "µM"}]}
{"smiles": "C[C@H](c1c[nH]c(=O)c2ccccc12)N(C)C(=O)Nc1ccc(F)c(C#N)c1", "note": "[Compound 98, (R)-3-(3-Cyano-4-fluorophenyl)-1-methyl-1-(1-(1-oxo-1,2-dihydroisoquinolin-4-yl)ethyl)urea]", "values": [{"measurement": "EC50", "setting": "Hepatitis B virus, HepDE19, read-out: DE-19bDNA EC50 (μM), HepDE19 assay, inhibition of formation of rcDNA", "result": 0.16, "unit": "µM"}]}
{"smiles": "CC(c1c[nH]c(=O)c2c(F)c(F)ccc12)N(C)C(=O)NCc1ccc(F)c(Cl)c1", "note": "(single isomer, unassigned) [Compound 497, 3-(3-Chloro-4-fluorobenzyl)-1-(1-(7,8-difluoro-1-oxo-1,2-dihydroisoquinolin-4-yl)ethyl)-1-methylurea]", "values": [{"measurement": "EC50", "setting": "[5]", "result": 0.26, "unit": "µM"}]}
{"smiles": "CC(c1c[nH]c(=O)c2ccccc12)N(CC(C)(C)CO)C(=O)Nc1ccc(F)c(Cl)c1", "note": "(single isomer, unassigned) [Compound 209, 3-(3-Chloro-4-fluorophenyl)-1-(3-hydroxy-2,2-dimethylpropyl)-1-(1-(1-oxo-1,2-dihydroisoquinolin-4-yl)ethyl)urea]", "values": [{"measurement": "EC50", "setting": "[2]", "result": 7.9, "unit": "µM"}]}
{"smiles": "CC(c1c[nH]c(=O)c2c(F)c(F)ccc12)N(C)C(=O)NCc1ccc(F)cc1", "note": "(single isomer, unassigned) [Compound 492, 1-(1-(7,8-Difluoro-1-oxo-1,2-dihydroisoquinolin-4-yl)ethyl)-3-(4-fluorobenzyl)-1-methylurea]", "values": [{"measurement": "EC50", "setting": "[5]", "result": 0.84, "unit": "µM"}]}
{"smiles": "CC(c1cnc(NCCN)c2ccccc12)N(C)C(=O)Nc1ccc(F)c(Cl)c1", "note": "(single isomer, unassigned) [Compound 249, 1-(1-(1-((2-Aminoethyl)amino)isoquinolin-4-yl)ethyl)-3-(3-chloro-4-fluorophenyl)-1-methylurea]", "values": [{"measurement": "EC50", "setting": "[2]", "result": 14, "unit": "µM"}]}
{"smiles": "CC(c1c[nH]c(=O)c2ccccc12)N(CCCC#N)C(=O)Nc1ccc(F)c(Cl)c1", "note": "(single isomer, unassigned) [Compound 115, 3-(3-Chloro-4-fluorophenyl)-1-(3-cyanopropyl)-1-(1-(1-oxo-1,2-dihydroisoquinolin-4-yl)ethyl)urea]", "values": [{"measurement": "EC50", "setting": "[2]", "result": 0.01, "unit": "µM"}]}
{"smiles": "CC(c1cnc(OCc2nc[nH]n2)c2cc(F)c(F)cc12)N(C)C(=O)Nc1ccc(F)c(Cl)c1", "note": "(single isomer, unassigned) [Compound 363, 1-(1-(1-((1H-1,2,4-Triazol-3-yl)methoxy)-6,7-difluoroisoquinolin-4-yl)ethyl)-3-(3-chloro-4-fluorophenyl)-1-methylurea]", "values": [{"measurement": "EC50", "setting": "[5]", "result": 0.014, "unit": "µM"}]}
{"smiles": "CC(c1c[nH]c(=O)c2c(F)cc(F)cc12)N(CCS(N)(=O)=O)C(=O)Nc1ccc(F)c(Cl)c1", "note": "(single isomer, unassigned) [Compound 390, 2-(3-(3-Chloro-4-fluorophenyl)-1-(1-(6,8-difluoro-1-oxo-1,2-dihydroisoquinolin-4-yl)ethyl)ureido) ethane-1-sulfonamide]", "values": [{"measurement": "EC50", "setting": "[5]", "result": 0.017, "unit": "µM"}]}
{"smiles": "Cc1[nH]c(=O)c2ccccc2c1C(C)N(C)C(=O)Nc1ccc(F)c(Cl)c1", "note": "(single isomer, unassigned) [Compound 222, 3-(3-Chloro-4-fluorophenyl)-1-methyl-1-(1-(3-methyl-1-oxo-1,2-dihydroisoquinolin-4-yl)ethyl)urea]", "values": [{"measurement": "EC50", "setting": "[2]", "result": 0.62, "unit": "µM"}]}
{"smiles": "CC(c1cnc(C(=O)N(C)C)c2ccccc12)N(C)C(=O)Nc1ccc(F)c(Cl)c1", "note": "(single isomer, unassigned) [Compound 319, 4-(1-(3-(3-Chloro-4-fluorophenyl)-1-methylureido)ethyl)-N,N-dimethylisoquinoline-1-carboxamide]", "values": [{"measurement": "EC50", "setting": "[5]", "result": 0.38, "unit": "µM"}]}
{"smiles": "CC(c1cnc(S(C)(=O)=O)c2ccccc12)N(C)C(=O)Nc1ccc(F)c(Cl)c1", "note": "(single isomer, unassigned) [Compound 314, 3-(3-Chloro-4-fluorophenyl)-1-methyl-1-(1-(1-(methylsulfonyl)isoquinolin-4-yl)ethyl)urea]", "values": [{"measurement": "EC50", "setting": "[5]", "result": 8.3, "unit": "µM"}]}
{"smiles": "CC(c1c[nH]c(=O)c2c(F)c(F)ccc12)N(CCS(N)(=O)=O)C(=O)Nc1ccc(F)c(Cl)c1", "note": "(single isomer, unassigned) [Compound 391, 2-(3-(3-Chloro-4-fluorophenyl)-1-(1-(7,8-difluoro-1-oxo-1,2-dihydroisoquinolin-4-yl)ethyl)ureido) ethane-1-sulfonamide]", "values": [{"measurement": "EC50", "setting": "[5]", "result": 2.9, "unit": "µM"}]}
{"smiles": "CCN(C(=O)Nc1ccc(F)c(F)c1)C(C)c1c[nH]c(=O)c2c(F)c(F)ccc12", "note": "(single isomer, unassigned) [Compound 462, 1-(1-(7,8-Difluoro-1-oxo-1,2-dihydroisoquinolin-4-yl)ethyl)-3-(3,4-difluorophenyl)-1-ethylurea]", "values": [{"measurement": "EC50", "setting": "[5]", "result": 0.92, "unit": "µM"}]}
{"smiles": "CC(c1c[nH]c(=O)c2c(F)c(F)ccc12)N(CCS(N)(=O)=O)C(=O)Nc1ccc(F)cc1", "note": "(single isomer, unassigned) [Compound 394, 2-(1-(1-(7,8-Difluoro-1-oxo-1,2-dihydroisoquinolin-4-yl)ethyl)-3-(4-fluorophenyl)ureido)ethane-1-sulfonamide]", "values": [{"measurement": "EC50", "setting": "[5]", "result": 10, "unit": "µM"}]}
{"smiles": "COCCCN(C(=O)Nc1ccc(F)c(Cl)c1)C(C)c1cnc(OC)c2ccccc12", "note": "(single isomer, unassigned) [Compound 81, 3-(3-Chloro-4-fluorophenyl)-1-(1-(1-methoxyisoquinolin-4-yl)ethyl)-1-(3-methoxypropyl)urea]", "values": [{"measurement": "EC50", "setting": "[2]", "result": 8.6, "unit": "µM"}]}
{"smiles": "CC(c1c[nH]c(=O)c2ccccc12)N(CC1CCCCC1)C(=O)Nc1ccc(F)c(Cl)c1", "note": "(single isomer, unassigned) [Compound 194, 3-(3-Chloro-4-fluorophenyl)-1-(cyclohexylmethyl)-1-(1-(1-oxo-1,2-dihydroisoquinolin-4-yl)ethyl)urea]", "values": [{"measurement": "EC50", "setting": "[2]", "result": 0.95, "unit": "µM"}]}
{"smiles": "CC(c1cn(C)c(=O)c2cc(F)ccc12)N(C)C(=O)Nc1ccc(F)c(Cl)c1", "note": "(single isomer, unassigned) [Compound 302, 3-(3-Chloro-4-fluorophenyl)-1-(1-(7-fluoro-2-methyl-1-oxo-1,2-dihydroisoquinolin-4-yl)ethyl)-1-methylurea]", "values": [{"measurement": "EC50", "setting": "[5]", "result": 3.3, "unit": "µM"}]}
{"smiles": "CC(c1c[nH]c(=O)c2c(F)cccc12)N(CCS(N)(=O)=O)C(=O)Nc1ccc(F)c(Cl)c1", "note": "(single isomer, unassigned) [Compound 397, 2-(3-(3-Chloro-4-fluorophenyl)-1-(1-(8-fluoro-1-oxo-1,2-dihydroisoquinolin-4-yl)ethyl)ureido) ethane-1-sulfonamide]", "values": [{"measurement": "EC50", "setting": "[5]", "result": 0.1, "unit": "µM"}]}
{"smiles": "CC(c1c[nH]c(=O)c2c(F)c(F)ccc12)N(CCS(N)(=O)=O)C(=O)Nc1ccc(F)c(Cl)c1", "note": "(racemic) [Compound 393, 2-(3-(3-chloro-4-fluorophenyl)-1-(1-(7,8-difluoro-1-oxo-1,2-dihydroisoquinolin-4-yl)ethyl)ureido) ethane-1-sulfonamide]", "values": [{"measurement": "EC50", "setting": "[3]", "result": 0.037, "unit": "µM"}]}
{"smiles": "CC(c1c[nH]c(=O)c2cc(F)c(F)cc12)N(C)C(=O)NCc1ccc(F)c(F)c1", "note": "(single isomer, unassigned) [Compound 476, 1-(1-(6,7-Difluoro-1-oxo-1,2-dihydroisoquinolin-4-yl)ethyl)-3-(3,4-difluorobenzyl)-1-methylurea]", "values": [{"measurement": "EC50", "setting": "[5]", "result": 0.43, "unit": "µM"}]}
{"smiles": "COCCOCCN(C(=O)Nc1ccc(F)c(Cl)c1)C(C)c1c[nH]c(=O)c2ccccc12", "note": "(single isomer, unassigned) [Compound 124, 3-(3-Chloro-4-fluorophenyl)-1-(2-(2-methoxyethoxy)ethyl)-1-(1-(1-oxo-1,2-dihydroisoquinolin-4-yl)ethyl)urea]", "values": [{"measurement": "EC50", "setting": "[1]", "result": 0.56, "unit": "µM"}]}
{"smiles": "CN(Cc1c[nH]c(=O)c2ccccc12)C(=O)Nc1ccc(F)c(Cl)c1", "note": "[Compound 1, 3-(3-Chloro-4-fluorophenyl)-1-methyl-1-((1-oxo-1,2-dihydroisoquinolin-4-yl)methyl)urea]", "values": [{"measurement": "EC50", "setting": "[4]", "result": 0.47, "unit": "µM"}]}
{"smiles": "CC(c1c[nH]c(=O)c2c(F)cc(F)cc12)N(CCCO)C(=O)Nc1ccc(F)cc1", "note": "(single isomer, unassigned) [Compound 378, 1-(1-(6,8-Difluoro-1-oxo-1,2-dihydroisoquinolin-4-yl)ethyl)-3-(4-fluorophenyl)-1-(3-hydroxypropyl) urea]", "values": [{"measurement": "EC50", "setting": "[5]", "result": 0.024, "unit": "µM"}]}
